According to US20260209250A1, “CRYSTAL FORM OF KRAS G12D INHIBITOR AND PREPARATION METHOD THEREFOR” (priority 2022, published 2026):

How the values were obtained:
[1] = Long-term/accelerated stability; format: physicochemical
[2] = Crystal form stability study (influencing factor experiments); format: physicochemical; settings: for Physical and chemical properties (conclusion of influencing factor experiments): high temperatures and high humidities for 30 days
Procedure: Samples of the crystal forms A, B, C, I, J, and K of the compound represented by formula (I) were taken, spread in open containers, and left to stand under conditions of light exposure (4500 Lux), high temperatures (40° C. and 60° C.), and high humidities (RH 75% and RH 92.5%) for 30 days to investigate their stability, and the results are shown in Table 16.

[3] = 40° C., 10 days, open container
[4] = 40° C., 30 days, open container
[5] = 60° C., 10 days, open container
[6] = 60° C., 30 days, open container
[7] = 75% RH, 10 days, open container
[8] = 75% RH, 30 days, open container
[9] = 92.5% RH, 5 days, open container
[10] = 92.5% RH, 10 days, open container
[11] = 92.5% RH, 30 days, open container
[12] = light exposure (4500 Lux), 5 days, open container
[13] = light exposure (4500 Lux), 10 days, open container
[14] = light exposure (4500 Lux), 30 days, open container

## CCc1c(F)ccc2cc(O)cc(-c3nc4c5c(nc(OC[C@@]67CCCN6C[C@H](F)C7)nc5c3F)N3C[C@H]5CC[C@H](N5)[C@H]3CO4)c12 [Crystal form J, 5-Ethyl-6-fluoro-4-((5aS,6S,9R)-1-fluoro-12-(((2R,7aS)-2-fluorotetrahydro-1H-pyrrolizin-7a(5H)-yl)methoxy)-5a,6,7,8,9,10-hexahydro-5H-4-oxa-3,10a,11,13,14-pentaaza-6,9-methanonaphtho[1,8-ab]heptalen-2-yl)naphthalen-2-ol]
[1]; 25° C./60% RH
  Purity % 1 month: 99.5%
  Purity % 2 months: 99.6%
  Purity % 3 months: 99.6%
  Purity % Initial: 99.6%
[1]; 40° C./75% RH
  Purity % 1 month: 99.4%
  Purity % 2 months: 99.3%
  Purity % 3 months: 99.2%
  Purity % Initial: 99.6%
[2]; 40° C., 5 days, open container
  Color and state: Off-white solid
  Crystal form: Did not change
  Purity %: 99.2%
[2]; [3]
  Color and state: Off-white solid
  Crystal form: Did not change
  Purity %: 98.8%
[2]; [4]
  Color and state: Off-white solid
  Crystal form: Did not change
  Purity %: 97.9%
[2]; 60° C., 5 days, open container
  Color and state: Off-white solid
  Crystal form: Did not change
  Purity %: 99.1%
[2]; [5]
  Color and state: Off-white solid
  Crystal form: Did not change
  Purity %: 98.5%
[2]; [6]
  Color and state: Off-white solid
  Crystal form: Did not change
  Purity %: 97.4%
[2]; 75% RH, 5 days, open container
  Color and state: Off-white solid
  Crystal form: Did not change
  Purity %: 99.6%
[2]; [7]
  Color and state: Off-white solid
  Crystal form: Did not change
  Purity %: 99.6%
[2]; [8]
  Color and state: Off-white solid
  Crystal form: Did not change
  Purity %: 99.5%
[2]; [9]
  Color and state: Off-white solid
  Crystal form: Did not change
  Purity %: 99.6%
[2]; [10]
  Color and state: Off-white solid
  Crystal form: Did not change
  Purity %: 99.5%
[2]; [11]
  Color and state: Off-white solid
  Crystal form: Did not change
  Purity %: 99.5%
[2]; Initial, 0 days
  Color and state: Off-white solid
  Crystal form: Crystal form J
  Purity %: 99.6%
[2]
  Physical and chemical properties (conclusion of influencing factor experiments): good physical and chemical properties
[2]; [12]
  Color and state: Off-white solid
  Crystal form: Did not change
  Purity %: 98.1%
[2]; [13]
  Color and state: Pale yellow solid
  Crystal form: Did not change
  Purity %: 95.5%
[2]; [14]
  Color and state: Pale yellow solid
  Crystal form: Did not change
  Purity %: 93.0%

## CCc1c(F)ccc2cc(O)cc(-c3nc4c5c(nc(OC[C@@]67CCCN6C[C@H](F)C7)nc5c3F)N3C[C@H]5CC[C@H](N5)[C@H]3CO4)c12 [Crystal form C, 5-Ethyl-6-fluoro-4-((5aS,6S,9R)-1-fluoro-12-(((2R,7aS)-2-fluorotetrahydro-1H-pyrrolizin-7a(5H)-yl)methoxy)-5a,6,7,8,9,10-hexahydro-5H-4-oxa-3,10a,11,13,14-pentaaza-6,9-methanonaphtho[1,8-ab]heptalen-2-yl)naphthalen-2-ol]
[1]; 25° C./60% RH
  Purity % 1 month: 99.7%
  Purity % 2 months: 99.6%
  Purity % 3 months: 99.6%
  Purity % Initial: 99.7%
[1]; 40° C./75% RH
  Purity % 1 month: 99.5%
  Purity % 2 months: 99.4%
  Purity % 3 months: 99.2%
  Purity % Initial: 99.7%
[2]; 40° C., 5 days, open container
  Color and state: Off-white solid
  Crystal form: Did not change
  Purity %: 99.3%
[2]; [3]
  Color and state: Off-white solid
  Crystal form: Did not change
  Purity %: 99.3%
[2]; [4]
  Color and state: Off-white solid
  Crystal form: Did not change
  Purity %: 98.5%
[2]; 60° C., 5 days, open container
  Color and state: Off-white solid
  Crystal form: Did not change
  Purity %: 99.0%
[2]; [5]
  Color and state: Off-white solid
  Crystal form: Did not change
  Purity %: 99.0%
[2]; [6]
  Color and state: Off-white solid
  Crystal form: Did not change
  Purity %: 97.9%
[2]; 75% RH, 5 days, open container
  Color and state: Off-white solid
  Crystal form: Did not change
  Purity %: 99.6%
[2]; [7]
  Color and state: Off-white solid
  Crystal form: Did not change
  Purity %: 99.6%
[2]; [8]
  Color and state: Off-white solid
  Crystal form: Did not change
  Purity %: 99.5%
[2]; [9]
  Color and state: Off-white solid
  Crystal form: Did not change
  Purity %: 99.6%
[2]; [10]
  Color and state: Off-white solid
  Crystal form: Did not change
  Purity %: 99.6%
[2]; [11]
  Color and state: Off-white solid
  Crystal form: Did not change
  Purity %: 99.4%
[2]; Initial, 0 days
  Color and state: Off-white solid
  Purity %: 99.7%
[2]
  Physical and chemical properties (conclusion of influencing factor experiments): good physical and chemical properties
[2]; [12]
  Color and state: Off-white solid
  Crystal form: Did not change
  Purity %: 99.2%
[2]; [13]
  Color and state: Off-white solid
  Crystal form: Did not change
  Purity %: 98.7%
[2]; [14]
  Color and state: Pale yellow solid
  Crystal form: Did not change
  Purity %: 97.9%

## CCc1c(F)ccc2cc(O)cc(-c3nc4c5c(nc(OC[C@@]67CCCN6C[C@H](F)C7)nc5c3F)N3C[C@H]5CC[C@H](N5)[C@H]3CO4)c12 [Crystal form I, 5-Ethyl-6-fluoro-4-((5aS,6S,9R)-1-fluoro-12-(((2R,7aS)-2-fluorotetrahydro-1H-pyrrolizin-7a(5H)-yl)methoxy)-5a,6,7,8,9,10-hexahydro-5H-4-oxa-3,10a,11,13,14-pentaaza-6,9-methanonaphtho[1,8-ab]heptalen-2-yl)naphthalen-2-ol]
[1]; 25° C./60% RH
  Purity % 1 month: 99.6%
  Purity % 2 months: 99.6%
  Purity % 3 months: 99.6%
  Purity % Initial: 99.6%
[1]; 40° C./75% RH
  Purity % 1 month: 99.6%
  Purity % 2 months: 99.4%
  Purity % 3 months: 99.6%
  Purity % Initial: 99.6%
[2]; 40° C., 5 days, open container
  Color and state: Off-white solid
  Crystal form: Did not change
  Purity %: 99.6%
[2]; [3]
  Color and state: Off-white solid
  Crystal form: Did not change
  Purity %: 99.4%
[2]; [4]
  Color and state: Off-white solid
  Crystal form: Did not change
  Purity %: 99.3%
[2]; 60° C., 5 days, open container
  Color and state: Off-white solid
  Crystal form: Did not change
  Purity %: 99.6%
[2]; [5]
  Color and state: Off-white solid
  Crystal form: Did not change
  Purity %: 99.4%
[2]; [6]
  Color and state: Off-white solid
  Crystal form: Did not change
  Purity %: 99.3%
[2]; 75% RH, 5 days, open container
  Color and state: Off-white solid
  Crystal form: Did not change
  Purity %: 99.6%
[2]; [7]
  Color and state: Off-white solid
  Crystal form: Did not change
  Purity %: 99.6%
[2]; [8]
  Color and state: Off-white solid
  Crystal form: Did not change
  Purity %: 99.6%
[2]; [9]
  Color and state: Off-white solid
  Crystal form: Did not change
  Purity %: 99.5%
[2]; [10]
  Color and state: Off-white solid
  Crystal form: Did not change
  Purity %: 99.5%
[2]; [11]
  Color and state: Off-white solid
  Crystal form: Did not change
  Purity %: 99.6%
[2]; Initial, 0 days
  Color and state: Off-white solid
  Crystal form: Crystal form I
  Purity %: 99.6%
[2]
  Physical and chemical properties (conclusion of influencing factor experiments): good physical and chemical properties
[2]; [12]
  Color and state: Off-white solid
  Crystal form: Did not change
  Purity %: 99.6%
[2]; [13]
  Color and state: Off-white solid
  Crystal form: Did not change
  Purity %: 99.5%
[2]; [14]
  Color and state: Off-white solid
  Crystal form: Did not change
  Purity %: 99.2%
